Data set [1] has as its system whole blood. The data set can be described thus: Example 3: visual inspection of reaction system with whole blood treatment solutions (hemolysis, adhesion and aggregation of magnetic particles).
Description: Examination was conducted on the assumption that a detergent was added to the reaction system by adding the detergent to a whole blood treatment solution beforehand. The whole blood treatment solutions were prepared by dissolving various detergents in 0.1 M Tris buffer (pH 8.0) containing 1% BSA and 0.15 M NaCl, and it was examined which detergent was suitable for the measurement method of the present invention.
Blood was collected by using an EDTA blood collection tube. Then, HBsAg was added at 1 U/ml to each of the whole blood stored at 4° C. for 3 days and plasma obtained from the whole blood by centrifugation, and a recovery test for HBsAg was performed using the luminescence intensity obtained in the measurement using plasma, which was taken as 100%.
The assay was performed in the same manner as in Example 2. Whole blood and each of the various whole blood treatment solutions were mixed at a ratio of 9:1, plasma was mixed with purified water at a ratio of 9:1, and HBsAg was immediately measured. Further, whole blood was mixed with the aforementioned buffer (0.1 M Tris buffer (pH 8.0) containing 1% BSA and 0.15 M NaCl) without adding a detergent instead of a whole blood treatment solution, and HBsAg was measured in the same manner. Presence or absence of hemolysis in the reaction system, non-specific adhesion of magnetic particles on the reaction vessel (made of polypropylene) and non-specific aggregation of magnetic particles during reaction were confirmed by visual inspection.
For data set [2], the system named is whole blood. The data set can be described thus: Example 4: visual inspection of reaction system, types and concentrations of detergents (hemolysis, adhesion, aggregation). As to conditions: heparin whole blood stored overnight at 4° C.
Description: Blood was collected by using a blood collection tube treated with heparin as an anticoagulant. […] Each detergent was added at a concentration of 0.01, 0.1, 0.5, 1 and 10% as a final concentration after the mixing with whole blood. Presence or absence of hemolysis in the reaction system, non-specific adhesion of magnetic particles on the reaction vessel (made of polypropylene) and non-specific aggregation of magnetic particles during reaction were confirmed by visual inspection for each detergent in each reaction system, and recovery ratio with respect to the added amount was determined.
Data set [3] concerns whole blood. The data set can be described thus: Example 5: visual inspection of reaction system using fresh whole blood (hemolysis, adhesion, aggregation).
Description: In emergent tests, in particular, it is desirable to perform an assay immediately after blood collection, and erythrocytes in whole blood may be gradually hemolyzed during storage, possibly affecting the measurement. Therefore, examination was performed by using fresh blood immediately after blood collection.
The mark [4] stands for this setting: detergent 1% upon mixing of whole blood, EDTA whole blood stored at 4° C. for 3 days, visual inspection.

Entries after “also recorded” stand apart in the source; their conditions may differ.

Consider `C[C@H](CCC(=O)NCCC[N+](C)(C)CCCS(=O)(=O)[O-])[C@H]1CC[C@H]2[C@@H]3[C@H](O)C[C@@H]4C[C@H](O)CC[C@]4(C)[C@H]3C[C@H](O)[C@]12C` [CHAPS, 3-{(3-Cholamidopropyl)dimethylammonio}-1-propanesulfonate], for which, in the data set with whole blood [1] (setting [4]), the Hemolysis result is “Present”.

In the case of “Polyoxyethylene octyl phenyl ether [Triton X-100]”, the Hemolysis result is “Present” with whole blood [1] (setting [4]); “Absent” with whole blood [2] (detergent 0.01% upon mixing of whole blood); “Absent” in the data set with whole blood [2] (detergent 0.1% upon mixing of whole blood); “hemolysis was observed; also recorded: Present” with whole blood [2] (detergent 0.5% upon mixing of whole blood); “Present” in the data set on whole blood [2] (detergent 1% upon mixing of whole blood); “Present” in the data set on whole blood [2] (detergent 10% upon mixing of whole blood).

Consider Saponin, for which the Hemolysis result in the data set with whole blood [1] was “Present”.

Regarding `O=S(=O)([O-])CCC[n+]1ccccc1`, the Hemolysis result in the data set with whole blood [1] and in the data set with whole blood [3] was “Absent” in each case.

As for Polyoxyethylene stearyl ether [Brij 78], the Hemolysis entry in the data set on whole blood [1] (setting [4]) is “Present”.

The values above are taken from patent US7338809B2, “Method for assaying whole blood” (Mitsubishi Kagaku Iatron, Inc., priority 2001, dated 2008).
